From patent US4740233A, “Substituted 1,2,4-triazolo[1,5-a]-pyrimidine-2-sulfonamides and compositions and methods of controlling undesired vegetation and suppressing the nitrification of ammonium nitrogen in soil” (The Dow Chemical Company, priority 1986, dated 1988)

Key:
cotton [1] = assay: Preemergent control of plant species; assay type: in vivo, Gossypium spp.; conditions: Gossypium hirsutum, pre-emergence, 336 h; 0.25 lb/acre; read-out: percent preemergent control
Procedure, shortened: (§1)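 Growth reduction relative to untreated plants of the same species, assessed two weeks after treatment, defines the control value. Compositions, mostly aqueous emulsions, were deposited uniformly on seeded greenhouse soil beds at the tabulated rates, with a water-treated bed as reference.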

rape [2] = assay: Preemergent control of plant species; assay type: in vivo, Brassica napus; conditions: Brassica napus, pre-emergence, 336 h; 0.25 lb/acre; read-out: percent preemergent control
Procedure, shortened: as §1

soybean [3] = assay: Preemergent control of plant species; assay type: in vivo, Glycine max.; conditions: Glycine max, pre-emergence, 336 h; 0.25 lb/acre; read-out: percent preemergent control
Procedure, shortened: as §1

sugar beet [4] = assay: Preemergent control of plant species; assay type: in vivo, Beta saccharifera; conditions: Beta vulgaris, pre-emergence, 336 h; 0.25 lb/acre; read-out: percent preemergent control
Procedure, shortened: as §1

jimsonweed [5] = assay: Preemergent control of plant species; assay type: in vivo, Datura stramonium; conditions: Datura stramonium, pre-emergence, 336 h; 0.25 lb/acre; read-out: percent preemergent control
Procedure, shortened: as §1

pigweed [6] = assay: Preemergent control of plant species; assay type: in vivo, Amaranthus spp.; conditions: Amaranthus retroflexus, pre-emergence, 336 h; 0.25 lb/acre; read-out: percent preemergent control
Experimental: (§2) The seeds of various species of plants were planted in beds of good agricultural soil in a greenhouse. A number of compositions of the present invention, generally in the nature of an aqueous emulsion, were applied at rates listed in the table so as to deposit a predetermined amount of active ingredients uniformly throughout the surface of the bed. Another seed bed was treated only with water to serve as a control. After treatment the seed beds were maintained for two weeks under greenhouse conditions conducive for good plant growth and watered as necessary. Control refers to the reduction in growth compared to the observed results of the same untreated species.

velvetleaf [7] = assay: Preemergent control of plant species; assay type: in vivo, Abutilon theophrasti; conditions: Abutilon theophrasti, pre-emergence, 336 h; 0.25 lb/acre; read-out: percent preemergent control
Procedure, shortened: as §1

corn [8] = assay: Preemergent control of plant species; assay type: in vivo, Zea mays; conditions: Zea mays, pre-emergence, 336 h; 0.25 lb/acre; read-out: percent preemergent control
Procedure, shortened: as §1

rice [9] = assay: Preemergent control of plant species; assay type: in vivo, Oryza sativa; conditions: Oryza sativa, pre-emergence, 336 h; 0.25 lb/acre; read-out: percent preemergent control
Procedure, shortened: as §1

sorghum [10] = assay: Preemergent control of plant species; assay type: in vivo, Sorghum vulgare; conditions: Sorghum, pre-emergence, 336 h; 0.25 lb/acre; read-out: percent preemergent control
Procedure, shortened: as §1

wheat [11] = assay: Preemergent control of plant species; assay type: in vivo, Triticum aestivum; conditions: Triticum aestivum, pre-emergence, 336 h; 0.25 lb/acre; read-out: percent preemergent control
Procedure, shortened: as §1

crabgrass [12] = assay: Preemergent control of plant species; assay type: in vivo, Digitaria spp.; conditions: Digitaria sanguinalis, pre-emergence, 336 h; 0.25 lb/acre; read-out: percent preemergent control
Experimental: as §2

johnson grass [13] = assay: Preemergent control of plant species; assay type: in vivo, Sorghum halepense; conditions: Sorghum halepense, pre-emergence, 336 h; 0.25 lb/acre; read-out: percent preemergent control
Procedure, shortened: as §1

wild oats [14] = assay: Preemergent control of plant species; assay type: in vivo; conditions: Avena fatua, pre-emergence, 336 h; 0.25 lb/acre; read-out: percent preemergent control
Procedure, shortened: as §1

yellow foxtail [15] = assay: Preemergent control of plant species; assay type: in vivo, Setaria lutescens; conditions: Setaria, pre-emergence, 336 h; 0.25 lb/acre; read-out: percent preemergent control
Procedure, shortened: as §1

[16] = tested on: nitrification of ammonium nitrogen; assay: Suppression of nitrification of ammonium nitrogen in soil; conditions: 27° C.
Procedure, shortened: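 Soil (20 g) moistened to its 1/3 bar tension value, mixed with test chemical and incubated sealed for two weeks at 27° C. Nitrate extracted with ammonium sulfate solution and measured by nitrate-specific ion electrode; value given as % NH4-N remaining.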

cotton [17] = assay: Postemergent control of plant species; assay type: in vivo, Gossypium spp.; conditions: Gossypium hirsutum, post-emergence, 336 h, read-out: percent postemergent control
Procedure, shortened: (§3)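 Foliar spray, 2-4 leaf stage, greenhouse. Formulation: acetone solution (2x final conc.) mixed 1:1 with water + 0.1% surface active agent. ~2 wk hold, watered as needed. Readout = % growth reduction vs untreated same-species controls.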

rape [18] = assay: Postemergent control of plant species; assay type: in vivo, Brassica napus; conditions: Brassica napus, post-emergence, 336 h, read-out: percent postemergent control
Procedure, shortened: as §3

soybean [19] = assay: Postemergent control of plant species; assay type: in vivo, Glycine max.; conditions: Glycine max, post-emergence, 336 h, read-out: percent postemergent control
Procedure, shortened: as §3

sugar beet [20] = assay: Postemergent control of plant species; assay type: in vivo, Beta saccharifera; conditions: Beta vulgaris, post-emergence, 336 h, read-out: percent postemergent control
Procedure, shortened: as §3

cocklebur = assay: Postemergent control of plant species; assay type: in vivo, Xanthium spp.; conditions: Xanthium strumarium, post-emergence, 336 h, read-out: percent postemergent control
Procedure, shortened: as §3

jimsonweed [21] = assay: Postemergent control of plant species; assay type: in vivo, Datura stramonium; conditions: Datura stramonium, post-emergence, 336 h, read-out: percent postemergent control
Procedure, shortened: as §3

annual morning glory [22] = assay: Postemergent control of plant species; assay type: in vivo, Ipomoea spp.; conditions: Ipomoea, post-emergence, 336 h, read-out: percent postemergent control
Procedure, shortened: as §3

pigweed [23] = assay: Postemergent control of plant species; assay type: in vivo, Amaranthus spp.; conditions: Amaranthus retroflexus, post-emergence, 336 h, read-out: percent postemergent control
Procedure, shortened: as §3

velvetleaf [24] = assay: Postemergent control of plant species; assay type: in vivo, Abutilon theophrasti; conditions: Abutilon theophrasti, post-emergence, 336 h, read-out: percent postemergent control
Procedure, shortened: as §3

corn [25] = assay: Postemergent control of plant species; assay type: in vivo, Zea mays; conditions: Zea mays, post-emergence, 336 h, read-out: percent postemergent control
Procedure, shortened: as §3

rice [26] = assay: Postemergent control of plant species; assay type: in vivo, Oryza sativa; conditions: Oryza sativa, post-emergence, 336 h, read-out: percent postemergent control
Procedure, shortened: as §3

sorghum [27] = assay: Postemergent control of plant species; assay type: in vivo, Sorghum vulgare; conditions: Sorghum, post-emergence, 336 h, read-out: percent postemergent control
Procedure, shortened: as §3

wheat [28] = assay: Postemergent control of plant species; assay type: in vivo, Triticum aestivum; conditions: Triticum aestivum, post-emergence, 336 h, read-out: percent postemergent control
Procedure, shortened: as §3

barnyardgrass [29] = assay: Postemergent control of plant species; assay type: in vivo, Echinochloa crusgalli; conditions: Echinochloa crus-galli, post-emergence, 336 h, read-out: percent postemergent control
Procedure, shortened: as §3

crabgrass [30] = assay: Postemergent control of plant species; assay type: in vivo, Digitaria spp.; conditions: Digitaria sanguinalis, post-emergence, 336 h, read-out: percent postemergent control
Procedure, shortened: as §3

yellow foxtail [31] = assay: Postemergent control of plant species; assay type: in vivo, Setaria lutescens; conditions: Setaria, post-emergence, 336 h, read-out: percent postemergent control
Procedure, shortened: as §3

johnson grass [32] = assay: Postemergent control of plant species; assay type: in vivo, Sorghum halepense; conditions: Sorghum halepense, post-emergence, 336 h, read-out: percent postemergent control
Procedure, shortened: as §3

wild oats [33] = assay: Postemergent control of plant species; assay type: in vivo, Avena fatua; conditions: Avena fatua, post-emergence, 336 h, read-out: percent postemergent control
Procedure, shortened: as §3

yellow nutsedge [34] = assay: Postemergent control of plant species; assay type: in vivo, Cyperus esculentus; conditions: Cyperus, post-emergence, 336 h, read-out: percent postemergent control
Procedure, shortened: as §3

rice [35] = assay: Control of aquatic plant species (paddy water); assay type: in vivo, Oryza sativa; conditions: Oryza sativa, 216 h; 2.0 Kg/Ha, nine days; read-out: Percent control
Procedure, shortened: (§4)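 1-2 inch plants transplanted into ~2 in soil, flooded ~1 in deep; acetone concentrate injected into floodwater, volume adjusted for target concentration; % control scored at 9 days.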

barnyardgrass [36] = assay: Control of aquatic plant species (paddy water); assay type: in vivo, Echinochloa crusgalli; conditions: Echinochloa crus-galli, 216 h; 2.0 Kg/Ha, nine days; read-out: Percent control
Experimental: In testing for such utility, the plant species to be tested were transplanted into 16 oz. containers into about 2 inches of soil when they were in the 1-2 inch stage and then flooded to a depth of about 1 inch. An acetone concentrate of the chemical to be tested was then injected into the paddy water, the volume injected being varied as desired to provide the desired concentration. Percent control was evaluated nine days after application.

sprangletop = assay: Control of aquatic plant species (paddy water); assay type: in vivo, Leptochloa filiformis; conditions: Leptochloa filiformis, 216 h; 2.0 Kg/Ha, nine days; read-out: Percent control
Procedure, shortened: as §4

yellow nutsedge [37] = assay: Control of aquatic plant species (paddy water); assay type: in vivo, Cyperus esculentus; conditions: Cyperus, 216 h; 2.0 Kg/Ha, nine days; read-out: Percent control
Procedure, shortened: as §4

annual morning glory [38] = assay: Preemergent control of plant species; assay type: in vivo, Ipomoea spp.; conditions: Ipomoea, pre-emergence, 336 h; 0.25 lb/acre; read-out: percent preemergent control
Procedure, shortened: as §1

barnyardgrass [39] = assay: Preemergent control of plant species; assay type: in vivo, Echinochloa crusgalli; conditions: Echinochloa crus-galli, pre-emergence, 336 h; 0.25 lb/acre; read-out: percent preemergent control
Procedure, shortened: as §1

yellow nutsedge [40] = assay: Preemergent control of plant species; assay type: in vivo, Cyperus esculentus; conditions: Cyperus, pre-emergence, 336 h; 0.25 lb/acre; read-out: percent preemergent control
Procedure, shortened: as §1

## COCc1cccc(Cl)c1NS(=O)(=O)c1nc2nc(C)cc(C)n2n1 [Compound 91]
Cotton [1]
  plant injury at 280.212 g/ha: 100%
Rape [2]
  plant injury at 280.212 g/ha: 100%
Soybean [3]
  plant injury at 280.212 g/ha: 100%
Sugar beet [4]
  plant injury at 280.212 g/ha: 100%
Jimsonweed [5]
  pest or weed control at 280.212 g/ha: 40%
Pigweed [6]
  pest or weed control at 280.212 g/ha: 100%
Velvetleaf [7]
  pest or weed control at 280.212 g/ha: 70%
Corn [8]
  plant injury at 280.212 g/ha: 30%
Rice [9]
  plant injury at 280.212 g/ha: 50%
Sorghum [10]
  plant injury at 280.212 g/ha: 0%
Wheat [11]
  plant injury at 280.212 g/ha: 20%
Crabgrass [12]
  pest or weed control at 280.212 g/ha: 40%
Johnson grass [13]
  pest or weed control at 280.212 g/ha: 0%
Wild oats [14]
  pest or weed control at 280.212 g/ha: 70%
Yellow foxtail [15]
  pest or weed control at 280.212 g/ha: 100%
[16]; 0.06 ppm
  % NH4-N Remaining After 2 Weeks Incubation: 15%
[16]; 0.25 ppm
  % NH4-N Remaining After 2 Weeks Incubation: 46%
[16]; 1 ppm
  % NH4-N Remaining After 2 Weeks Incubation: 55%
[16]; 4 ppm
  % NH4-N Remaining After 2 Weeks Incubation: 80%

## Cc1cc(C)n2nc(S(=O)(=O)Nc3ccccc3)nc2n1 [Compound 1]
Cotton [17]
  plant injury at 500 ppm: 0%
Rape [18]
  plant injury at 500 ppm: 60%
Soybean [19]
  plant injury at 500 ppm: 30%
Sugar beet [20]
  plant injury at 500 ppm: 85%
cocklebur
  pest or weed control at 500 ppm: 0%
Jimsonweed [21]
  pest or weed control at 500 ppm: 0%
Annual morning glory [22]
  pest or weed control at 500 ppm: 0%
Pigweed [23]
  pest or weed control at 500 ppm: 60%
Velvetleaf [24]
  pest or weed control at 500 ppm: 70%
Corn [25]
  plant injury at 500 ppm: 0%
Rice [26]
  plant injury at 500 ppm: 0%
Sorghum [27]
  plant injury at 500 ppm: 40%
Wheat [28]
  plant injury at 500 ppm: 0%
Barnyardgrass [29]
  pest or weed control at 500 ppm: 15%
Crabgrass [30]
  pest or weed control at 500 ppm: 0%
Yellow foxtail [31]
  pest or weed control at 500 ppm: 40%
Johnson grass [32]
  pest or weed control at 500 ppm: 60%
Wild oats [33]
  pest or weed control at 500 ppm: 0%
Yellow nutsedge [34]
  pest or weed control at 500 ppm: 0%
Rice [35]
  pest or weed control at 2000 g/ha: 97%
Barnyardgrass [36]
  pest or weed control at 2000 g/ha: 95%
sprangletop
  pest or weed control at 2000 g/ha: 90%
Yellow nutsedge [37]
  pest or weed control at 2000 g/ha: 70%
[16]; 0.01 ppm
  % NH4-N Remaining After 2 Weeks Incubation: 0%
[16]; 0.1 ppm
  % NH4-N Remaining After 2 Weeks Incubation: 0%
[16]; 1 ppm
  % NH4-N Remaining After 2 Weeks Incubation: 35%
[16]; 10 ppm
  % NH4-N Remaining After 2 Weeks Incubation: 75%

## COc1cccc(C(F)(F)F)c1NS(=O)(=O)c1nc2nc(C)cc(C)n2n1 [Compound 104]
Cotton [1]
  plant injury at 280.212 g/ha: 100%
Rape [2]
  plant injury at 280.212 g/ha: 100%
Soybean [3]
  plant injury at 280.212 g/ha: 100%
Sugar beet [4]
  plant injury at 280.212 g/ha: 100%
Jimsonweed [5]
  pest or weed control at 280.212 g/ha: 100%
Annual morning glory [38]
  pest or weed control at 280.212 g/ha: 100%
Velvetleaf [7]
  pest or weed control at 280.212 g/ha: 100%
Corn [8]
  plant injury at 280.212 g/ha: 100%
Rice [9]
  plant injury at 280.212 g/ha: 100%
Sorghum [10]
  plant injury at 280.212 g/ha: 100%
Wheat [11]
  plant injury at 280.212 g/ha: 100%
Barnyardgrass [39]
  pest or weed control at 280.212 g/ha: 100%
Crabgrass [12]
  pest or weed control at 280.212 g/ha: 100%
Johnson grass [13]
  pest or weed control at 280.212 g/ha: 100%
Wild oats [14]
  pest or weed control at 280.212 g/ha: 100%
Yellow foxtail [15]
  pest or weed control at 280.212 g/ha: 100%
Yellow nutsedge [40]
  pest or weed control at 280.212 g/ha: 100%
